Measured values reported in US6451854B1, “α-amino acid phenyl ester derivatives” (Akzo Nobel N.V., priority 1998, dated 2002).
Counter-ions that a name gives are not always drawn.

Columns and labels:
mice = assay: hypnotic activity: loss of righting reflex after intravenous administration in mice; format: in vivo; settings: dose causing loss of righting reflex for minimum 30 seconds in 50% of mice, intravenous injection over 10 seconds; for ED50: Mus musculus, iv, read-out: HD50 (the source's name)
Protocol: The hypnotic potency of the α-amino acid phenyl ester derivatives of the invention was determined upon their intravenous administration in mice. The dose required to cause a loss of righting reflex for a minimum period of 30 seconds in 50% of treated mice after intravenous injection over 10 seconds was determined. This dose is termed the HD50 (hypnotic dose50) and is expressed in μmol.kg^−1.

GABAA receptors = assay: inhibition of [35S]-TBPS binding to rat whole brain membranes; settings: concentration required to inhibit 50% of [35S]-TBPS binding
Source text: γ-Aminobutyric acid (GABA) is the major inhibitory neurotransmitter within the central nervous system and it is probable that compounds potentiating the effects of GABA at GABAA receptors will induce anaesthesia (S. A. Zimmerman, M. V. Jones and N. L. Harrison, J. Pharmacol. Exp. Therap. 1994, 270, 987-991; N. P. Franks and W. R. Lieb, Nature 1994, 367, 607-614). Indeed there is compelling evidence that many hypnotics exert their biological activity via modulation of GABAA receptors, including steroids, barbiturates, benzodiazepines and propofol (D. L. Tanelian, P. Kosek, I. Mody and M. B. Maclver, Anesthesiology 1993, 78, 757-776).
The in vitro effect of the compounds of the invention at GABAA receptors was assessed through determination of their ability to inhibit [^35S]-TBPS ([^35S]-tert-butyl bicyclophosphorothionate) binding to rat whole brain membranes. The concentration of α-amino acid phenyl ester derivative required to inhibit 50% of binding of [^35S]-TBPS was determined. These in vitro experiments were carried out as described in detail by Anderson et al., J.Med.Chem. 1997, 40, 1668-1681.

SMILES: COCCN(CCOC)C(C)C(=O)Oc1c(OC)cc(C)cc1OC (racemic) (as salt: hydrochloride) [Example 7e, (±)-2-[N-bis(2-methoxyethyl)amino]propionic acid, 2,6-dimethoxy-4-methylphenyl ester hydrochloride (1:1) salt]
- melting point: 96 to 97 °C

SMILES: COCCN(CCOC)C(C)C(=O)Oc1c(OC)cccc1OC (racemic) (as salt: hydrochloride) [Example 7f, (±)-2-[N-bis(2-methoxyethyl)amino]propionic acid, 2,6-dimethoxyphenyl ester hydrochloride (1:1) salt]
- melting point: 114 to 116 °C

SMILES: CC[C@H](C(=O)Oc1c(OC)cc(C)cc1OC)N(CCOC)CCOC [Example 7a, R-(+)-2-[N-bis(2-methoxyethyl)amino]butyric acid, 2,6-dimethoxy-4-methylphenyl ester hydrochloride (1:1) salt]
- ED50 (mice): 21 µmol/kg
- IC50 (GABAA receptors): 22 µM

SMILES: CCOCCN(CCOCC)[C@@H](CC)C(=O)Oc1c(OC)cccc1OC [Example 7aa, S-(−)-2-[N-bis(2-ethoxyethyl)amino]butyric acid, 2,6-dimethoxyphenyl ester hydrochloride (1:1) salt]
- ED50 (mice): 22 µmol/kg
- IC50 (GABAA receptors): 11 µM

SMILES: COc1cc(C)cc(OC)c1OC(=O)[C@@H](C)N(C)Cc1ccccc1 [Example 7h, R-(+)-2-[N-methylbenzylamino]propionic acid, 2,6-dimethoxy-4-methylphenyl ester hydrochloride (1:1) salt]
- ED50 (mice): 56 µmol/kg
- IC50 (GABAA receptors): 27 µM

SMILES: COc1cccc(OC)c1OC(=O)C(C)N(C)CCc1ccccc1 (centres unmarked) [Example 7m, 2-[N-methylphenethylamino]propionic acid, 2,6-dimethoxyphenyl ester hydrochloride (1:1) salt]
- ED50 (mice): 38 µmol/kg
- IC50 (GABAA receptors): 59 µM

SMILES: COCCN(C)C(C)C(=O)Oc1c(OC)cccc1OC.Cl (centres unmarked) [Example 7p, 2-[N-methyl-(2-methoxy)ethylamino]propionic acid, 2,6-dimethoxyphenyl ester hydrochloride (1:1) salt]
- HD50 (mice): 72 µmol/kg
- IC50 (GABAA receptors): ~100 µM

SMILES: CC[C@@H](C(=O)Oc1c(OC)cc(C)cc1OC)N(CCOC)CCOC [Example 7v, S-(−)-2-[N-bis(2-methoxyethyl)amino]butyric acid, 2,6-dimethoxy-4-methylphenyl ester hydrochloride (1:1) salt]
- ED50 (mice): 35 µmol/kg
- IC50 (GABAA receptors): 14 µM

SMILES: COCCN(CCOC)[C@H](C)C(=O)Oc1c(OC)cc(C)cc1OC [Example 7y, R-(+)-2-[N-bis(2-methoxyethyl)amino]propionic acid, 2,6-dimethoxy-4-methylphenyl ester hydrochloride (1:1) salt]
- ED50 (mice): 18 µmol/kg
- IC50 (GABAA receptors): < 100 µM

SMILES: CCOCCN(CCOCC)[C@H](CC)C(=O)Oc1c(OC)cccc1OC [Example 7z, R-(+)-2-[N-bis(2-ethoxyethyl)amino]butyric acid, 2,6-dimethoxyphenyl ester hydrochloride (1:1) salt]
- ED50 (mice): 19 µmol/kg
- IC50 (GABAA receptors): 18 µM

SMILES: COc1cccc(OC)c1OC(=O)C(C)N1CCOCC1 (centres unmarked) [Reference, 2,6-dimethoxyphenyl 2-morpholinopropionate, reference compound]
- ED50 (mice): 139 µmol/kg
- IC50 (GABAA receptors): 766 µM
